Values after ≈ are worked out from the molar mass of the structure shown. Values joined by “and” are separate entries in the source; they are usually repeats but may differ in a detail not shown here. Equal entries are not always repeated.

Data set [1] is described as follows: Solubility of the prodrugs in PBS (67 mM phosphate buffer pH 7.4). To be noted: for solubility thermodynamic: 67 mM phosphate buffer pH 7.4 (PBS), 37 °C, pH 7.4, aqueous buffer, thermodynamic from solid; for Sprodrug ± SD: PBS (67 mM phosphate buffer pH 7.4), 37° C.
Description: The determination of the solubility of a prodrug at different pH values of interest according to the present invention is carried by adding excess solid prodrug to a container containing a buffer solution with well-defined pH. The mixture is rotated at constant temperature until an equilibrium between solid prodrug and prodrug in solution has established (that is until the prodrug concentration in the supernatant remains constant). At each measurement the pH of the supernatant is controlled and, if needed, adjusted to the desired pH.
Suspensions of the prodrugs in 67 mM phosphate buffer pH 7.4 (PBS) were prepared by adding 10 mL PBS to approximately 5 mg prodrug. The suspensions were kept unstirred at 37° C. in an incubator hood. At appropriate time intervals over 23 days, about 500 μL samples were taken and after filtration (disposable syringe filters), the solutions were analyzed immediately by HPLC for parent drug and remaining prodrug. Quantitation of parent drug and prodrug was done from peak area measurements in relations to those of standards analysed by HPLC at the same conditions. […] For the diclofenac and ibuprofen prodrugs, the following method was used: Merck Hitachi L 6000 pump connected to Merck Hitachi 4250 UV detector. Reversed phase chromatography was performed using a C18 Gemini® RP column (150×4.6 mm, 5 μm particles) (Phenomenex, Torrance, Calif., USA) equipped with a SecurityGuard precolumn (Phenomenex, Torrance, Calif., USA). The flow rate was set at 1 mL/min and the column effluent was monitored at 230 nm. The mobile phase consisted of 35% (v/v) acetonitrile and 65% (v/v) of 0.1% (v/v) phosphoric acid pH 3.2. The retention times varied in the range of 3 to 30 min.
From the observed relatively stable concentration of dissolved prodrugs measured in the suspensions after 8-9 day up to 23 days, the solubilities of the prodrugs (Sprodrug) were determined.
The nature of data set [2]: Stability (cleavage to parent drug) of prodrug suspensions in PBS pH 7.4. It counts as physicochemical. To be noted: for half-life at 0.5 mg/mL: 67 mM phosphate buffer (PBS), PBS pH 7.4, 37° C., read-out: t1/2 in PBS (converted); for apparent pseudo-zero-order rate constant k0: appearance of parent drug in PBS pH 7.4 suspension, 37° C.; for estimated pseudo first-order rate constant khyd: cleavage of prodrug in PBS pH 7.4, 37° C., calculated from k0 and Sprodrug.
Description: Suspensions of the prodrugs in 67 mM phosphate buffer pH 7.4 (PBS) were prepared by adding 10 mL PBS to approximately 5 mg prodrug. The suspensions were kept unstirred at 37° C. in an incubator hood. At appropriate time intervals over 23 days, about 500 μL samples were taken and after filtration (disposable syringe filters), the solutions were analyzed immediately by HPLC for parent drug and remaining prodrug. Quantitation of parent drug and prodrug was done from peak area measurements in relations to those of standards analysed by HPLC at the same conditions.
From the observed relatively stable concentration of dissolved prodrugs measured in the suspensions after 8-9 day up to 23 days, the solubilities of the prodrugs (Sprodrug) were determined. In this time interval, the rate of appearance of parent drug was determined and an apparent pseudo-zero-order rate constant (k0) was obtained. By assuming that the dissolution rates were much faster than the conversion of the prodrugs to the parent drug, pseudo first-order rate constants (khyd) for cleavage of the prodrugs were calculated according to:

Data set [3] in a line: Hydrolysis of the prodrugs in 80% human plasma. It counts as in vitro ADME. The settings on record: for half-life: read-out: t1/2 in plasma.
Description: At 37±0.5° C., the hydrolysis rate of the prodrugs was measured in 80% human plasma. An appropriate aliquot (20-100 μL) of 1 mg/ml prodrug solution in methanol was transferred to 5.0 ml of preheated plasma. At appropriate time intervals, 300 μl sample aliquots were withdrawn and transferred to 600 μl acetonitrile and mixed thoroughly. After centrifugation at 13500 rpm for 5 min, the supernatant was analyzed by HPLC for parent drug and remaining prodrug.
Data set [4] can be described thus: Solubility at acidic pH, with and without DMA cosolvent. It is filed as physicochemical. To be noted: demineralized water acidified with HCl, 37 °C, pH 2.9, aqueous buffer, thermodynamic from solid, pH 2.9, 37° C., no DMA. The procedure: A suspension of DPX-2-0007 (as hydrochloride salt) was formed by adding 30 mg to 4 mL demineralized water. After rotation of the suspension at 37° C. for 3 days, 1.0 mL sample was taken and after filtration (disposable syringe filters), the solution was diluted in methanol:water 1:1 and analyzed immediately by HPLC for prodrug. […] The pH in the solution was measured to 3.40. The following HPLC method was used: Merck Hitachi L 6200 pump connected to Merck Hitachi 4250 UV detector. Reversed phase chromatography was performed using a RP 18 Symmetry Shields® column (150×4.6 mm, 5 μm particles) equipped with a SecurityGuard precolumn (Phenomenex, Torrance, Calif., USA). […] The retention time of naproxen and DPX-2-0007 were 19 and 5.8 min, respectively.
A suspension of DPX-2-0006 was formed by adding 10 mg to 3 mL demineralized water, 0.05 mL 0.100 M HCl was added to obtain a pH of 3. After rotation of the suspension at 37° C. for 1 days, 0.5 mL sample was taken and after filtration (disposable syringe filters), the solution was diluted in methanol:water 1:1 and analyzed immediately by HPLC for prodrug. […] The HPLC method described in Example 29 was applied and the retention time of DPX-2-0006 was 14 min, respectively. N,N-dimethylacetamide (DMA) was added stepwise to the acidic suspension of DPX-2-0006 and the amount of DPX-2-000 dissolved in the presence of various volumes of DMA was determined after 1-3 days rotation at 37° C. as described above.

[5] abbreviates: hydrolysis in 80% human plasma at 37° C.

One may read the solubility (thermodynamic) as solubility found after equilibrating the solid with the medium. Turning to `O=C(Cc1ccccc1Nc1c(Cl)cccc1Cl)OCCCCCCn1ccnc1` [DPX-1-0009, 6-(1H-imidazol-1-yl)hexyl 2-(2-(2,6-dichlorophenylamino)phenyl)acetate], in data set [1], the thermodynamic solubility was less than 0.3 µg/mL and the “Sprodrug ± SD” value is reported as less than 0.0007 mM.

`O=C(Cc1ccccc1Nc1c(Cl)cccc1Cl)OCCn1ccnc1` [DPX-1-0005, 2-(1H-imidazol-1-yl)ethyl 2-(2-(2,6-dichlorophenylamino)phenyl)acetate]: in data set [1], the thermodynamic solubility is 1 µg/mL (≈ 2.56 µM) and the “Sprodrug ± SD” value is on record as 0.003 mM.

In the case of `Cn1ccnc1CCOC(=O)Cc1ccccc1Nc1c(Cl)cccc1Cl` [DPX-1-0011, 2-(1-methyl-1H-imidazol-2-yl)ethyl 2-(2((2,6-dichlorophenyl)amino)phenyl)acetate], in data set [1], the thermodynamic solubility turned out to be 0.1 µg/mL (≈ 0.247 µM) and the “Sprodrug ± SD” value is 0.0002 mM.

One may read the solubility as how much of the substance goes into solution per volume. `COc1ccc2cc(C(C)C(=O)OCCn3cnc4ccccc43)ccc2c1` (stereo not shown) [DPX-2-0006, 2-(1H-benzo[d]imidazol-1-yl)ethyl 2-(6-methoxynaphthalen-2-yl)propanoate]: in data set [2], the half-life at 0.5 mg/mL is 11 days, the “apparent pseudo-zero-order rate constant k0” value stood at 1e-06 M/day and the “estimated pseudo first-order rate constant khyd” value is 0.066 day⁻¹. Moreover, the half-life in data set [3] (setting [5]) is 8.52 h. Also, the solubility at 1 day in data set [4] stood at 180 µg/mL (≈ 481 µM). Also, the “Sprodrug ± SD” value in data set [1] is 5 ± 1 μg/mL and 0.015 ± 0.002 mM.

As to `CC(C)Cc1ccc(C(C)C(=O)OCCn2ccnc2-c2ccccc2)cc1` (stereo not shown) [DPX-3-0007, 2-(2-phenyl-1H-imidazol-1-yl)ethyl 2-(4-isobutylphenyl)propanoate], in data set [1], the solubility (thermodynamic) amounted to 1 µg/mL (≈ 2.66 µM) and the “Sprodrug ± SD” value stood at 0.002 mM.

Take `CN(CCOC(=O)Cc1ccccc1Nc1c(Cl)cccc1Cl)c1ccccc1` [DPX-1-0002, 2-(methyl(phenyl)amino)ethyl 2-(2-(2,6-dichlorophenylamino)phenyl)acetate]: in data set [1], the thermodynamic solubility was less than 0.1 µg/mL and the “Sprodrug ± SD” value is less than 0.0002 mM.

Consider `CN(C)c1ccc(CCOC(=O)Cc2ccccc2Nc2c(Cl)cccc2Cl)cc1` [DPX-1-0001, 4-(dimethylamino)phenethyl 2-(2-(2,6-dichlorophenylamino)phenyl)acetate], for which, in data set [1], the thermodynamic solubility came out at 0.01 µg/mL (≈ 0.0226 µM) and the “Sprodrug ± SD” value came out at 2e-05 mM.

Consider `COc1ccc2cc(C(C)C(=O)OCCn3ccnc3)ccc2c1` (stereo not shown), for which the half-life in data set [3] (setting [5]) worked out at 1.07 h. In addition, in data set [1], the thermodynamic solubility was 146 ± 5 µg/mL (≈ 450 µM) and the “Sprodrug ± SD” value turned out to be 0.45 ± 0.02 mM.

In the case of `COc1ccc2cc(C(C)C(=O)OCCCN(C)c3ccccc3)ccc2c1` (stereo not shown) [DPX-2-0003, 3-(methyl(phenyl)amino)propyl 2-(6-methoxynaphthalen-2-yl)propanoate], in data set [1], the thermodynamic solubility was less than 1 µg/mL and the “Sprodrug ± SD” value was less than 0.003 mM.

`CC(C)Cc1ccc(C(C)C(=O)OCCn2cnc3ccccc32)cc1` (stereo not shown) [DPX-3-0006, 2-(1H-benzo[d]imidazol-1-yl)ethyl 2-(4-isobutylphenyl)propanoate]: in data set [2], the half-life at 0.5 mg/mL is 15 days, the “apparent pseudo-zero-order rate constant k0” value was determined as 5.7e-07 M/day and the “estimated pseudo first-order rate constant khyd” value is 0.048 day⁻¹. Also, the “stability on incubation in plasma” value in data set [3] (80% human plasma, 37° C., incubation for 10 h) is reported as “remained intact”. In addition, the t1/2 in plasma result in data set [3] (setting [5]) is given as “stable”. Further, in data set [1], the solubility (thermodynamic) amounted to 4 ± 0.2 µg/mL (≈ 11.4 µM) and the “Sprodrug ± SD” value worked out at 0.012 ± 0.001 mM.

In the case of `CC(C)Cc1ccc(C(C)C(=O)OCCc2ccccn2)cc1` (stereo not shown) [DPX-3-0004, 2-(pyridin-2-yl)ethyl 2-(4-isobutylphenyl)propanoate], in data set [2], the half-life at 0.5 mg/mL is 32 days, the “apparent pseudo-zero-order rate constant k0” value is 1e-06 M/day and the “estimated pseudo first-order rate constant khyd” value was 0.022 day⁻¹. In addition, the half-life in data set [3] (setting [5]) is 12.6 h. Also, in data set [1], the thermodynamic solubility was 15 ± 2 µg/mL (≈ 48.2 µM) and the “Sprodrug ± SD” value came to 0.044 ± 0.004 mM.

With `CCCc1nccn1CCCCCCOC(=O)Cc1ccccc1Nc1c(Cl)cccc1Cl` [DPX-1-0010, 6-(2-propyl-1H-imidazol-1-yl)hexyl 2-(2-(2,6-dichiorophenylamino)phenyl)acetate], in data set [1], the solubility (thermodynamic) is less than 0.4 µg/mL and the “Sprodrug ± SD” value is recorded as less than 0.0008 mM.

Regarding `O=C(Cc1ccccc1Nc1c(Cl)cccc1Cl)OCCc1ccccn1` [DPX-1-0004, 2-(pyridin-2-yl)ethyl 2-(2-((2,6-dichlorophenyl)amino)phenyl)acetate], in data set [2], the half-life at 0.5 mg/mL was 5 days, the “apparent pseudo-zero-order rate constant k0” value worked out at 1.1e-06 M/day and the “estimated pseudo first-order rate constant khyd” value was 0.15 day⁻¹. Also, in data set [3] (setting [5]), the half-life amounted to 0.417 h. In data set [1], the solubility (thermodynamic) was determined as 3 ± 1 µg/mL (≈ 7.48 µM) and the “Sprodrug ± SD” value was found to be 0.007 ± 0.001 mM.

In the case of `O=C(Cc1ccccc1Nc1c(Cl)cccc1Cl)OCCn1cnc2ccccc21` [DPX-1-0006, 2-(1H-benzo[d]imidazol-1-yl)ethyl 2-(2-((2,6-dichlorophenyl)amino)phenyl)acetate], in data set [2], the half-life at 0.5 mg/mL is 4 days, the “apparent pseudo-zero-order rate constant k0” value came to 2.4e-06 M/day and the “estimated pseudo first-order rate constant khyd” value was 0.17 day⁻¹. Moreover, the half-life in data set [3] (setting [5]) is 0.05 h. In data set [1], the thermodynamic solubility is 7 ± 2 µg/mL (≈ 15.9 µM) and the “Sprodrug ± SD” value was determined as 0.015 ± 0.004 mM.

As for `O=C(Cc1ccccc1Nc1c(Cl)cccc1Cl)OCCOCCn1ccnc1-c1ccccc1` [DPX-1-0012, 2-(2-(2-phenyl-1H-imidazol-1-yl)ethoxy)ethyl 2-(2-((2,6-dichlorophenyl)-amino)phenyl)acetate], in data set [1], the solubility (thermodynamic) was less than 0.3 µg/mL and the “Sprodrug ± SD” value is less than 0.0006 mM.

Take `O=C(Cc1ccccc1Nc1c(Cl)cccc1Cl)OCCn1ccnc1-c1ccccc1` [DPX-1-0007, 2-(2-phenyl-1H-imidazol-1-yl)ethyl 2-(2-((2,6-dichlorophenyl)amino)phenyl)acetate]: in data set [2], the half-life at 0.5 mg/mL is 242 days, the “apparent pseudo-zero-order rate constant k0” value was 2.5e-07 M/day and the “estimated pseudo first-order rate constant khyd” value is 0.0029 day⁻¹. The half-life in data set [3] (setting [5]) worked out at 0.817 h. Moreover, in data set [1], the thermodynamic solubility amounted to 43 ± 2 µg/mL (≈ 92.2 µM) and the “Sprodrug ± SD” value worked out at 0.086 ± 0.003 mM.

For the compound `COc1ccc2cc(C(C)C(=O)OCCN(C)c3ccccc3)ccc2c1` (stereo not shown) [DPX-2-0002, 2-(methyl(phenyl)amino)ethyl 2-(6-methoxynaphthalen-2-yl)propanoate], in data set [1], the solubility (thermodynamic) is less than 0.2 µg/mL and the “Sprodrug ± SD” value is recorded as less than 0.0006 mM.

`CCCc1nccn1CCOC(=O)Cc1ccccc1Nc1c(Cl)cccc1Cl` [DPX-1-0008, 2-(2-propyl-1H-imidazol-1-yl)ethyl 2-(2-(2,6-dichlorophenylamino)phenyl)acetate]: in data set [1], the solubility (thermodynamic) came to 0.3 µg/mL (≈ 0.694 µM) and the “Sprodrug ± SD” value is recorded as 0.0007 mM.

On to `COc1ccc2cc(C(C)C(=O)OCCc3ccccn3)ccc2c1` (stereo not shown) [DPX-2-0004, 2-(pyridin-2-yl)ethyl 2-(6-methoxynaphthalen-2-yl)propanoate], for which, in data set [2], the half-life at 0.5 mg/mL is 21 days, the “apparent pseudo-zero-order rate constant k0” value is 1.7e-06 M/day and the “estimated pseudo first-order rate constant khyd” value is 0.033 day⁻¹. Also, the half-life in data set [3] (setting [5]) was 4.78 h. In data set [1], the thermodynamic solubility was 19 ± 1 µg/mL (≈ 56.6 µM) and the “Sprodrug ± SD” value came out at 0.052 ± 0.002 mM.

Turning to `COc1ccc2cc(C(C)C(=O)OCCc3ccc(N(C)C)cc3)ccc2c1` (stereo not shown) [DPX-2-0001, 4-(dimethylamino)phenethyl 2-(6-methoxynaphthalen-2-yl)propanoate], in data set [1], the solubility (thermodynamic) is less than 0.3 µg/mL and the “Sprodrug ± SD” value is given as less than 0.0008 mM.

The record behind these values is US9809557B2 (priority 2011, dated 2017).
